“Also recorded” adds a separate entry of the source. Like-named read-outs stand apart in the source and are kept apart here.
Key:
[1] = Critical examinations for possible damages (clinical laboratory and blood pressure determinations); format: in vivo, humans; details: bilirubin in the blood
Text: In addition to the treatment with I, critical examinations for possible damages were undertaken. […] However, this observation probably only applies indirectly and exclusively to alcohol-toxic liver damages because toxic alcohol which was no longer inhibited, no longer acted upon the liver.

[2] = test system: aversion to alcohol in humans; assay: Alcohol withdrawal/aversion treatment in patients (case histories); format: in vivo
Experimental: In a particularly preferred mode of administration, tablets or dragees containing about 800 mg. of I are used. As an example of its use, after at least 12 hours of alcohol abstention, a half tablet (400 mg.) can be given in the morning before eating, and another half on the next day.
22 Men and 5 women were treated with the new agent I. The youngest patient was 22 and the oldest 68. The average age was 44 years. After the first administration (400 mg., twice), as described above, the dosage consisted of a single oral administration of 800 mg. per week. The highest total dosage amounted to 67 g. of I. With this, the patient could be protected against the influence of alcohol for 84 weeks.
In assessment of success, 5 cases are to be discounted from the total of 27 I treatments. […] Thus, 22 cases remain which can be considered as I treatments. In 12 of these cases, the withdrawal treatment was successful; in three cases questionable; and 7 cases without success. […] After taking 11 g. of I and more (corresponding to an active level period of over 14 weeks), 8 successful cases were counted and two had questionable success. Below 6 g. of I (corresponding to an active level of not more than 8 weeks), there were seven failures; one questionable case and only 2 successful withdrawals.

[3] = Half-life time of the active material; details: in vivo
trypanosomes = details: known from P 16 20 043 / GB 1,133,408; cited from earlier work
[4] = test system: acetaldehyde content of the blood; assay: Acetaldehyde content of the blood after the consumption of alcohol; format: in vivo
Text: (§1) In contrast, important enzyme systems are inhibited by use of disulfiram.

[5] = Side effects / tolerability on administration; format: in vivo, humans
Text: It can even appear upon merely smelling the atmosphere of a barroom. […] However, in comparison with the known severe results of a marked abuse of alcohol, these side effects are negligible.

important enzyme systems [6] = assay: Inhibition of important enzyme systems; format: biochemical; details: compound I
Text: as §1

[7] = disulfiram, cited from earlier work
important enzyme systems [8] = details: disulfiram; cited from earlier work
[9] = below 6 g. of I (active level of not more than 8 weeks)
[10] = after administration of I, humans

**Q.** What does the source list for Cc1nc([N+](=O)[O-])cn1-c1ccc([N+](=O)[O-])cc1 [compound I, 1-(4-nitrophenyl)-2-methyl-4-nitroimidazole]?
**A.** liver function tests ([1]; γ-GT and γ-globulins, probably indirect, alcohol-toxic liver damages only): clear normalizations; harmful side effects in laboratory examinations ([1]; lymphocytes, GT, GOT, GPT, total protein, β-globulins, γ-globulins, cholesterol, RR systolic): no indications of harmful side effects; successful cases ([2]; 11 g. of I and more (active level period of over 14 weeks)): 8 cases; correlation of success with period of the withdrawal treatment ([2]; 22 evaluable cases): clearly correlated; outcome of treatment ([2]; Example 1: champagne cellerman, total dosage 67 g., first treatment from May 1972): the patient behaved normally and worked regularly; outcome of renewed treatment ([2]; Example 1: treatment begun again after relapse in May 1974, up to January 1975): same good success; effect of alcohol after discontinuation of treatment ([2]; Example 2: one month after discontinuation (treated November 1973 to February 1974)): throbbing headache caused by alcohol; outcome of treatment ([2]; Example 2: storekeeper, total dosage 57 g., since April 1974, relatively regular taking of tablets): normal, regular work; outcome of treatment ([2]; Example 3: total dosage 37 g., after renewed treatment November 1973 to January 1975): no alcohol; outcome of treatment ([2]; Example 4: immigrant worker, total dosage 25 g., statement of spouse): successful breaking of the habit; alcohol consumption since the end of the treatment ([2]; Example 4: total dosage 25 g., according to statements of the wife): only had an occassional 1-2 glasses of wine; outcome of treatment ([2]; Example 5: employee, total dosage 17 g., after treatment September 1974 to February 1975): alcohol-free; revulsion against alcohol ([2]; after the administration of I, humans): a pronounced revulsion against alcohol is produced; also recorded: causes an aversion to alcohol in humans; failures [2, 9]: seven; questionable case [2, 9]: one; successful withdrawals [2, 9]: 2; patient protected against the influence of alcohol, duration ([2]; highest total dosage 67 g., 400 mg. twice, then oral 800 mg. per week): 84 weeks; withdrawal treatment questionable ([2]; of 22 evaluable cases): three; withdrawal treatment successful ([2]; of 22 evaluable cases): 12 cases; withdrawal treatment without success ([2]; of 22 evaluable cases): 7 cases; half-life [3]: > 40 h; effectiveness against disease-causing trypanosomes (trypanosomes): effectiveness; acetaldehyde content of the blood [4]: increase; compatibility ([5]; Example 1: after first 400 mg.): Good compatibility; severity of side effects [5, 10]: generally minor; side effects which occasionally appear [5, 10]: tachycardia, flush-like skin reddenings, sickly feelings, headache and hangover; inhibition of important enzyme systems (important enzyme systems [6]): No such inhibition occurs

**Q.** With CCN(CC)C(=S)SSC(=S)N(CC)CC [disulfiram] as the compound, how does the side effects ([7]; orally administered) read?
**A.** several undesirable side effects

**Q.** And the contraindication ([7]; inter alia diabetes)?
**A.** contraindicated by, inter alia, diabetes

**Q.** What about the “inhibition of important enzyme systems” value (important enzyme systems [8]) of the same compound?
**A.** inhibited
